Calls of active or inactive are those of the source. The calls are words filed in the database; no cut-off is given here.
Assays:
[1] = Inhibition of N-terminal 6x-His-tagged Hydrogenivirga-sp. 128-5-R1-1 MraY expressed in Escherichia coli NiCo21(DE3) incubated for 2 hrs by reversed-phase HPLC analysis
DLD-1 = assay: Cytotoxicity in human DLD-1 cells assessed as reduction in cell viability incubated for 72 hrs by MTT assay; assay type: functional, cell-based; details: DLD-1, 72 h
[2] = Inhibition of cell migration in human PD002 cells assessed as wound healing rate at 0.2 uM incubated for 24 hrs by wound healing assay (reference value: 63%); assay type: functional; design: scale not given: the % may be the effect or the level left
PD002 [3] = assay: Inhibition of cell migration in human PD002 cells at 0.1 uM incubated for 0.5 hrs by crystal violet staining based Boyden chamber assay; assay type: functional
PD002 [4] = assay: Inhibition of E-cadherin protein expression in human PD002 cells at 0 to 2 uM incubated for 24 hrs by Western blot analysis; assay type: functional, cell-based; details: dose microM 0-2, time […]
HCT-116 [5] = assay: Inhibition of E-cadherin protein expression in human HCT-116 cells at 0 to 2 uM incubated for 24 hrs by Western blot analysis; assay type: functional, cell-based; details: dose microM 0-2, time […]
[6] = Synergistic cytotoxicity in human PD002 cells assessed as FIC at 2 uM incubated for 72 hrs in presence of 0.039 uM paclitaxel by IncuCyte live cell analysis imaging system based assay; assay type: functional
PD002 [7] = assay: Inhibition of DPAGT1 protein expression in human PD002 cells at 0.2 uM incubated for 24 hrs by Western blot analysis; assay type: functional, cell-based
ASPC1 = assay: Inhibition of DPAGT1 protein expression in human ASPC1 cells at 0.2 uM incubated for 24 hrs by Western blot analysis; assay type: functional, cell-based
HCT-116 [8] = assay: Inhibition of DPAGT1 protein expression in human HCT-116 cells at 0.2 uM incubated for 24 hrs by Western blot analysis; assay type: functional, cell-based
[9] = Cytotoxicity in mouse L1210 cells assessed as reduction in cell viability incubated for 72 hrs by MTT assay; details: L1210, 72 h

For `CO[C@H]1[C@@H](O)[C@H](n2ccc(=O)[nH]c2=O)O[C@@H]1[C@@H](O[C@H]1OC(C(=O)NCc2ccc(N3CCC(Oc4ccc(OC(F)(F)F)cc4)CC3)cc2)=C[C@H](O)[C@@H]1O)C(N)=O`, which IC50 [1] is on record?
The IC50 was 10.3 µM.

And the IC50 (DLD-1)?
The IC50 was 25 µM.

What about the Activity [2] of the same molecule?
The Activity was 20%.

And the inhibition (PD002 [3])?
The inhibition was “Active”.

What about the inhibition (PD002 [4]) of the same molecule?
The inhibition was “inactive”.

What about the inhibition (HCT-116 [5]) of the same molecule?
The inhibition was “inactive”.

What about the FIC [6] of the same molecule?
The FIC was 0.037.

What about the inhibition (PD002 [7]) of the same molecule?
Its inhibition is “Active”.

What about the inhibition (ASPC1) of the same molecule?
Its inhibition is “Active”.

And the inhibition (HCT-116 [8])?
The inhibition was “Active”.

What about the IC50 [9] of the same molecule?
Its IC50 is > 50 µM.

— ChEMBL document CHEMBL4699480 (J Med Chem, 2020)
